Earlier results, collected in patent publication US8231899B2, “Quick release pharmaceutical compositions of drug substances” (Nycomed Danmark ApS, priority 1998, dated 2012).

Experiments:
[1] = room temperature

Structure (SMILES)	solubility in water and 0.1 N HCl [1]	solubility at a pH corresponding to 0.1 N HCl [1]	pKa value
CC(=O)Oc1ccccc1C(=O)O [acetylsalicylic acid]	practically insoluble	–	–
COc1ccc2c(c1)c(CC(=O)O)c(C)n2C(=O)c1ccc(Cl)cc1 [indometacin]	practically insoluble	–	–
CN1C(C(=O)Nc2ccccn2)=C(O)c2sc(Cl)cc2S1(=O)=O [lornoxicam]	–	less than 1 mg 100 ml	about 4.7
